What was measured:
CYP2C19 = molecular target: T1, CYP2C19 (Homo sapiens, UniProt P33261); experiment: CYP inhibition in human liver microsomes, substrate cocktail, LC-MS/MS (S-mephenytoin); assay type: in vitro ADME; details: metabolite 4-hydroxymephenytoin, 95% CI in brackets, read-out: IC50 for HLM, CYP2C19
T1 construct: Pooled human liver microsomes (HLM, LOT 32556) were purchased from BD Gentest Corporation; tissue BD Gentest Corporation LOT 32556; host or cells: pooled human liver microsomes
T1 sequence (P33261 whole entry): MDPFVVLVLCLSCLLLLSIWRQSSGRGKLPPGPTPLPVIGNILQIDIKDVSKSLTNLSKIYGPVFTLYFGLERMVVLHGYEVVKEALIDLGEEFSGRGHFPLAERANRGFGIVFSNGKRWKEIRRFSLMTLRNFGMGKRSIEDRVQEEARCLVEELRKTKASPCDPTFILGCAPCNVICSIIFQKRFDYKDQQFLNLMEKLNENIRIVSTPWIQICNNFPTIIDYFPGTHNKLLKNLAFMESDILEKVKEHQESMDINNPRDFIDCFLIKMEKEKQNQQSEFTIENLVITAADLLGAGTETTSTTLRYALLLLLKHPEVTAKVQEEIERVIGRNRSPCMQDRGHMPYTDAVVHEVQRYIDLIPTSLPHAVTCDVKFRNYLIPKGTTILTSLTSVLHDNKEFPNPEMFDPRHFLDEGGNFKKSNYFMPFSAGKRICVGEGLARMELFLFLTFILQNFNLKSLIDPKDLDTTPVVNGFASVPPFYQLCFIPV
Source text: (§1) Positive controls (furafyline for CYP1A2, montelukast for CYP2C8, sulfaphenazole for CYP2C9, S-(+)-N-3-benzylnirvanol for CYP2C19, quinidine for CYP2D6, ketoconazole for CYP3A4) and specific substrates (phenacetin for CYP1A2, paclitaxel for CYP2C8, diclofenac for CYP2C9, S-mephenytoin for CYP2C19, dextromethorphan for CYP2D6, midazolam for CYP3A4) are consistent with our previous papers. The substrates were used at concentrations approximately equal to their respective Michaelis-Menten constant (Km) values: 10 μM phenacetin, 5 μM paclitaxel, 5 μM diclofenac, 200 μM S-mephenytoin, 5 μM dextromethorphan, and 2 μM midazolam. NADP^+ was added after a 15 min preincubation of all other components at 37 °C. After a given incubation time (30 min), the reactions were terminated by addition of 60 μL ice-cold acetonitrile containing gemfibrozil and buspirone as internal standards. Incubation samples were stored at −80 °C until used in liquid chromatography-tandem mass spectrometry (LC-MS/MS) analysis. The mixture was centrifuged at 3,500 rpm for 5 min. The supernatant was mixed with equal volume of a 1:1 mixture of methanol and water and 20 μL of the final mixture was used for LC-MS/ MS analysis. […]
(§2) The CYP inhibition potential were evaluated by measuring the formation of one or more metabolites of the test substrates. […]

P-gp = molecular target: T2, P-gp (Homo sapiens, UniProt P08183); experiment: P-gp inhibition, calcein-AM fluorometry assay in WM-266-4 cells; assay type: cell-based; details: probe calcein-AM (1 μM), all six concentrations 4.1~1,000 μM, response relative to verapamil at 100 μM
T2 construct: host or cells: WM-266-4 human melanoma cells
T2 sequence (P08183 whole entry): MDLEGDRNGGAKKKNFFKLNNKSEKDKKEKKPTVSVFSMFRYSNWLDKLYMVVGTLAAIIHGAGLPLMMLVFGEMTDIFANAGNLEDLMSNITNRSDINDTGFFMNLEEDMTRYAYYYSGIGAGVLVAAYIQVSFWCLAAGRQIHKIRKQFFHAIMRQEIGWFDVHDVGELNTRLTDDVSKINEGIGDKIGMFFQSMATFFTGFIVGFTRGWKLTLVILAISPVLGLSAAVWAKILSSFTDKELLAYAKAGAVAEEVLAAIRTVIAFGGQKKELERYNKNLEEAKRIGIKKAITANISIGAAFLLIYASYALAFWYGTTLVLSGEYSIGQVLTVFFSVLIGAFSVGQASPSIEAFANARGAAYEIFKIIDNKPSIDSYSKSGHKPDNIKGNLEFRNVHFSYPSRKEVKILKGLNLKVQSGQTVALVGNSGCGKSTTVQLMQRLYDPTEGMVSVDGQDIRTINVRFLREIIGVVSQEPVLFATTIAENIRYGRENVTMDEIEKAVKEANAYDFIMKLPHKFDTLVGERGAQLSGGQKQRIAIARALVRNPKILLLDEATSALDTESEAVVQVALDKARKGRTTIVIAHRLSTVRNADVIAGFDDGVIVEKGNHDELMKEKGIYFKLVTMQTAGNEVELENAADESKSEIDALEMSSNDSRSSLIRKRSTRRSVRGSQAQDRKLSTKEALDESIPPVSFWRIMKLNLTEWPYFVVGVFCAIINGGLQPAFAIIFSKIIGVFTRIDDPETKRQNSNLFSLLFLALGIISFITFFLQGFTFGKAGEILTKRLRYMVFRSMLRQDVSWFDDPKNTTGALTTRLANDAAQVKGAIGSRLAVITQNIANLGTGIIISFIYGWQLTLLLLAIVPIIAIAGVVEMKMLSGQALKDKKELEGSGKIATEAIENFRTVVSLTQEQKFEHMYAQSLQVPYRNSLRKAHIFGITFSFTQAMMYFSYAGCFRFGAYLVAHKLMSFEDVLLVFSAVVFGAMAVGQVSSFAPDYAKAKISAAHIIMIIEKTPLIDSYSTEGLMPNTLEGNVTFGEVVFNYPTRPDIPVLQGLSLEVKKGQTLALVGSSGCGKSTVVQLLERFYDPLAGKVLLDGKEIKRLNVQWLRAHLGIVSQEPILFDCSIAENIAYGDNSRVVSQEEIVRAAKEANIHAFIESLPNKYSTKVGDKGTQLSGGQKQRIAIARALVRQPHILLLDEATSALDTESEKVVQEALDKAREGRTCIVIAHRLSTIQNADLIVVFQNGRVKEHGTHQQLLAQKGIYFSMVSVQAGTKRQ
Experimental: One vial of WM-266-4 cells was thawed and cultured in a 15 cm culture dish overnight. Cells were split the next day and transferred onto a clear bottom 96-well plate with 5.0 × 10^4 cells per well. […] Verapamil was used as a positive control at a concentration of 100 μM and 1% DMSO was used as a negative control. After 30 min of incubation time, calcein-AM diluted with 50 μL culture media without serum was added to a concentration of 1 μM and the sample was incubated for an additional 30 min. The plates were placed in the Flexstation II (Molecular Devices) and fluorescence was measured at excitation and emission wavelengths of 494 and 517 nm, respectively.
The P-gp inhibitor verapamil was used as positive control at a concentration of 100 μM. The experiment was considered valid if an increase in fluorescence greater than 5-fold was observed. For P-gp inhibition, a compound with a response less than 25% of verapamil at 100 μM is normally reported as “negative” at the tested concentration. The percent response value was used to determine and report the P-gp interaction at the tested concentration. A response equal to or greater than 25% of verapamil at 100 μM was considered to be “positive” at the tested concentration.

CYP1A2 = molecular target: T3, CYP1A2 (Rattus norvegicus, UniProt P04799); experiment: CYP inhibition in rat liver microsomes, substrate cocktail, LC-MS/MS (phenacetin); assay type: in vitro ADME; parameters: Pooled rat liver microsomes were prepared from three male Sprague-Dawley rats; from tissue; host or cells: pooled liver microsomes of three male Sprague-Dawley rats, prepared at HD Biosciences Co; details: read-out: IC50 for RLM, CYP1A2
T3 sequence (P04799 1-513): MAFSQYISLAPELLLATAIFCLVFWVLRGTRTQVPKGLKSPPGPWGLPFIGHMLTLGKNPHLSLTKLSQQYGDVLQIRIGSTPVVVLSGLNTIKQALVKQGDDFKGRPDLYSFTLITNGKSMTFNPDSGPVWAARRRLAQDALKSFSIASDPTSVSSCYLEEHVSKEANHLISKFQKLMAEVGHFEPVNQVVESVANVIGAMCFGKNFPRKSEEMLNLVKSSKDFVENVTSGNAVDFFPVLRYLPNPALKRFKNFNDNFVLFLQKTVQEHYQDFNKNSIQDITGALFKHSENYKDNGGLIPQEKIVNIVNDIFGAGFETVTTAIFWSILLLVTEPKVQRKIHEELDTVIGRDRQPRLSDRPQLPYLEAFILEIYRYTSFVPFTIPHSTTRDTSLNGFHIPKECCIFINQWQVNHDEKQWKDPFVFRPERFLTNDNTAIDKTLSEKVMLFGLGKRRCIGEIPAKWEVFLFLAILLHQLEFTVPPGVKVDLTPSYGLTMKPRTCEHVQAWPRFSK
Source text: as §1, §2

O=C(O)[C@H]1O[C@@H](Oc2cc3oc(-c4ccc(O)cc4)cc(=O)c3c(O)c2O)[C@H](O)[C@@H](O)[C@@H]1O [scutellarin, Scutellarin]
IC50 (CYP2C19): 63.8 µM
inhibition at 60 min (P-gp): < 25%
IC50 (CYP1A2): > 100 µM

Reference: publication PMC6271944 (Molecules, 2014)
